Experimental data taken from US20080220056A1, “Treatment for liver disease” (UNIVERSITY OF SOUTHAMPTON, priority 2002, published 2008).

Columns and labels:
[1] = system: experimentally induced fibrosis; assay: Recovery from carbon tetrachloride induced fibrosis in rats, sulfasalazine; type: in vivo, rat
Experimental: Adult male Sprague Dawley rats were treated twice weekly for six weeks by intraperitoneal injection of the hepatotoxin carbon tetrachloride and then allowed to recover for 24 hours prior to treatment with either vehicle control or sulfasalazine. Animals were then left to recover for either a further 16 or 72 hours.

[2] = system: NFκB responsive gene promoters; assay: NFκB responsive gene promoter activity; type: cell-based; conditions: 24 hours, versus untreated cells
caspase 3 activity = assay: Caspase 3 activity, sulfasalazine-treated hepatic stellate cells; type: cell-based; conditions: 0.5, 1 or 2 mM
Experimental: (§1) Treatment of activated hepatic stellate cells with Sulfasalazine (at a concentration of 0.5, 1 or 2 mM) for 24 hours induced a dose-dependent increase in apoptosis visualised by both Acridine Orange staining (30%, 45% and 55% respectively).

[3] = system: activated hepatic stellate cells; assay: Apoptosis of activated hepatic stellate cells by acridine orange, sulfasalazine; type: cell-based; conditions: 24 hours
Experimental: as §1

[4] = system: NFκB DNA binding activity; assay: Electromobility shift assay, sulfasalazine-treated hepatic stellate cells; type: cell-based; conditions: day 7 HSC; 0.5, 1 and 2 mM for 24 hours

## O=C(O)c1cc(/N=N/c2ccc(S(=O)(=O)Nc3ccccn3)cc2)ccc1O [Sulfasalazine]
[1]; six weeks CCl4, 16 hours recovery
  collagen deposition (fibrosis) versus control livers: no significant difference in collagen deposition
[1]; six weeks CCl4, 72 hours recovery
  collagen versus control livers: significantly less collagen
[1]; six weeks CCl4, 72 hours recovery, control livers 3
  fibrosis score (1-4; 1 no fibrosis, 4 cirrhosis): 1.5
[1]; six weeks CCl4, treatment 24 hours later, 16 hours recovery
  numbers of activated hepatic stellate cells versus control livers: large reduction in numbers of activated hepatic stellate cells
[2]
  activity of NFκB responsive gene promoters (PGJ21 (4xNFκB), IL6 and IκBα): repressed the activity of three NFκB responsive gene promoters
  activity of control 7×AP1 promoter: but not a control 7×AP1 promoter
Caspase 3 activity
  caspase 3 activity: increased caspase 3 activity in a dose-dependent manner
[3]; 0.5 mM
  apoptosis by Acridine Orange staining: 30%
[3]; 1 mM
  apoptosis by Acridine Orange staining: 45%
[3]; 2 mM
  apoptosis by Acridine Orange staining: 55%
[4]
  NFκB DNA binding activity: dose dependently inhibited NFκB DNA binding activity
